One data set concerns Artemia. The data set can be described thus: Toxicity in brine shrimp. The note with it: in vivo. It is filed as organism-based.
Data set [1] deals with Agrobacterium tumefaciens. The data set can be described thus: Antitumor activity against Agrobacterium tumefaciens-induced crown gall tumors in potato tubers by potato disk assay. It is filed as functional.

For the compound `CC1=CCC[C@H]2[C@](C)(CC3=CC(=O)C=CC3=O)[C@@H](C)CC[C@]12C` [AVARONE], in the data set on Artemia, the LC50 – broadly, the concentration lethal to half of the exposed cells or organisms – was determined as 0.14 ppm. Besides, in data set [1], the “inhibition (INH)” value was found to be 63%.

Consider `CC(=O)O.CC1=CCCC2[C@](C)(Cc3cc(O)ccc3O)[C@@H](C)CC[C@]12C` (stereo partly specified) [AVAROL MONOACETATE], for which, in the data set on Artemia, the LC50 is 0.09 ppm. Moreover, the “inhibition (INH)” value in data set [1] is listed as 59%.

The compound `CC1=CCC[C@H]2[C@](C)(Cc3cc(O)ccc3O)[C@@H](C)CC[C@]12C` [AVAROL] yielded an LC50 in the data set with Artemia of 0.18 ppm. Besides, in data set [1], the “inhibition (INH)” value worked out at 64%.

(Values after ChEMBL document CHEMBL1147289, “A new bioactive derivative of avarol from the marine sponge Dysidea avara” (J Nat Prod, 1989).)
